ChEMBL document CHEMBL4482302, “Inhibitors of rac1 and uses thereof for inducing bronchodilatation” (2018)
Activity calls are given as the source filed them. The rule behind the calls is not given here.

Columns and labels:
[1] = target: Ras-related C3 botulinum toxin substrate 1 (Mus musculus) (UniProt P63001); experiment: Inhibition of Rac1 activation in mouse NIH/3T3 cells lysates pre-incubated for 1 hr before addition of Rac activator stimulation by immunoblot analysis based pull-down assay; type: subcellular; conditions: Lysate
[2] = target: Ras-related C3 botulinum toxin substrate 2 (Mus musculus) (UniProt Q05144); experiment: Inhibition of mouse Rac2 assessed as decrease in B-max for GTP-binding on Rac1 by mant-GTP binding kinetics real-time assay
[3] = target: Transforming protein RhoA (Mus musculus) (UniProt Q9QUI0); experiment: Inhibition of mouse RhoA assessed as decrease in B-max for GTP-binding on Rac1 by mant-GTP binding kinetics real-time assay
Chain of Transforming protein RhoA (Mus musculus) (Q9QUI0 whole entry): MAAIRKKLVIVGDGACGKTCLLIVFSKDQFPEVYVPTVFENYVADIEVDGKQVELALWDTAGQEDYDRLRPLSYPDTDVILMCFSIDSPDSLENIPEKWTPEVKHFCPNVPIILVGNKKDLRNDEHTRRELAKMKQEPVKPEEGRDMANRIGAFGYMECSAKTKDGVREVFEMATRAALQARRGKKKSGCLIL

[4] = target: Ras-related protein Rab-35 (Mus musculus) (UniProt Q6PHN9); experiment: Inhibition of mouse Rab35 assessed as decrease in B-max for GTP-binding on Rac1 by mant-GTP binding kinetics real-time assay
Chain of Ras-related protein Rab-35 (Mus musculus) (Q6PHN9 whole entry): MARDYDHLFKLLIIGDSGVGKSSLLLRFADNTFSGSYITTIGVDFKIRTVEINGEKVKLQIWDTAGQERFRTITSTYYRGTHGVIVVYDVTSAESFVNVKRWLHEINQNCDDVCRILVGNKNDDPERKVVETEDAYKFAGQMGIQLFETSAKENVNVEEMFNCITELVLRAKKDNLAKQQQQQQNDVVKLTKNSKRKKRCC

[5] = target: Cell division control protein 42 homolog (Mus musculus) (UniProt P60766); experiment: Binding affinity to mouse Cdc42 by SPR assay
Chain of Cell division control protein 42 homolog (Mus musculus) (P60766 whole entry, looked up): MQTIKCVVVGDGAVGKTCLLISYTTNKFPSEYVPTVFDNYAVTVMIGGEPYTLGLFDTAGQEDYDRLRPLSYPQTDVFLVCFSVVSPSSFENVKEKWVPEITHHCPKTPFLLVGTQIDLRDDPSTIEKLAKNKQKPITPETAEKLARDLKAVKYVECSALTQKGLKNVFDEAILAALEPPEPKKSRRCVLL

[6] = target: Transforming protein RhoA (Mus musculus) (UniProt Q9QUI0); experiment: Binding affinity to mouse RhoA by SPR assay
[7] = target: Ras-related C3 botulinum toxin substrate 1 (Mus musculus) (UniProt P63001); experiment: Binding affinity to mouse Rac1 by SPR assay
[8] = target: Ras-related C3 botulinum toxin substrate 1 (Mus musculus) (UniProt P63001); experiment: Binding affinity to mouse Rac1 in presence of EDTA by SPR assay
[9] = target: Ras-related C3 botulinum toxin substrate 1 (Mus musculus) (UniProt P63001); experiment: Inhibition of mouse Rac1 assessed as decrease in B-max for GTP-binding on Rac1 by mant-GTP binding kinetics real-time assay
Mus musculus = experiment: Suppression of airway hyperresponsiveness in mouse model of percutaneous sensitization and house dust mite extract intranasal challenge-induced human allergic asthma dosed via nebulization 10 mins before methacholine challenge; type: functional, organism-based
[10] = target: Ras-related C3 botulinum toxin substrate 1 (Mus musculus) (UniProt P63001); experiment: Inhibition of Rac1 in mouse NIH/3T3 cells assessed as reduction in Rac activator-stimulated cell adhesion measured every 5 mins for 6 hrs by xCELLigence assay; type: cell-based
[11] = target: Rho-related GTP-binding protein RhoG (Mus musculus) (UniProt P84096); experiment: Inhibition of mouse RhoG assessed as decrease in B-max for GTP-binding on Rac1 by mant-GTP binding kinetics real-time assay
Chain of Rho-related GTP-binding protein RhoG (Mus musculus) (P84096 whole entry): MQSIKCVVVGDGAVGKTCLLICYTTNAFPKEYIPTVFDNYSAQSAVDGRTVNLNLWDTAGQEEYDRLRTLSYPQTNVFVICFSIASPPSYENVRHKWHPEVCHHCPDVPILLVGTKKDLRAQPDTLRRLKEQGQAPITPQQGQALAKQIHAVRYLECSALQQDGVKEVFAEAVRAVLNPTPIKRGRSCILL

[12] = target: Ras-related C3 botulinum toxin substrate 1 (Mus musculus, UniProt P63001); experiment: Inhibition of Rac1 activation in mouse NIH/3T3 cells lysates pre-incubated for 1 hr before addition of Rac activator stimulation by immunoblot analysis based pull-down assay relative to control; type: subcellular, Lysate
[13] = target: Ras-related C3 botulinum toxin substrate 1 (Mus musculus) (UniProt P63001); experiment: Inhibition of Rac1 in mouse NIH/3T3 cells assessed as reduction in Rac activator-stimulated membrane ruffling; type: cell-based
[14] = target: Ras-related C3 botulinum toxin substrate 1 (Mus musculus) (UniProt P63001); experiment: Inhibition of Rac1 in mouse NIH/3T3 cells assessed as reduction in Rac activator-stimulated cell migration incubated for 24 hrs; type: cell-based
[15] = target: Ras-related C3 botulinum toxin substrate 1 (Mus musculus) (UniProt P63001); experiment: Inhibition of Rac1 in mouse airways smooth muscle cells assessed as reduction in methacholine-induced maximal contraction pre-incubated for 1 hrs before methacholine addition
[16] = target: ADP-ribosylation factor 6 (Mus musculus) (UniProt P62331); experiment: Inhibition of mouse Arf6 assessed as decrease in B-max for GTP-binding on Rac1 by mant-GTP binding kinetics real-time assay
Chain of ADP-ribosylation factor 6 (Mus musculus) (P62331 whole entry): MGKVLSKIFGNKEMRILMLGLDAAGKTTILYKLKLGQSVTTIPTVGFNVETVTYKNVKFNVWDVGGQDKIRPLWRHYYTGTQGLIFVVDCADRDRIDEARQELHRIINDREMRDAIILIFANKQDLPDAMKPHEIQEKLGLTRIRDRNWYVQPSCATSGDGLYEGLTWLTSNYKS

In the case of `COc1ccc(OC)c(NS(=O)(=O)c2ccc(NC(=O)CCSc3ccc(C)cc3)cc2)c1`, the inhibition [1] is reported as “Active”, the inhibition [2] is reported as “Active” and the inhibition [3] is reported as “inactive”. For the same compound, the inhibition [4] was “inactive”, the Activity [5] was “inactive” and the Activity [6] was “inactive”. For the same compound, the Activity [7] was “Active”, the Activity [8] was “Active” and the inhibition [9] was “Active”. For the same compound, the Activity (Mus musculus) was “Active”, the inhibition [10] was “Active” and the inhibition [11] was “inactive”. The IC50 [12] was 1 nM, the inhibition [13] was “Dose-dependent effect” and the inhibition [14] was “Active”. For the same compound, the inhibition [15] was “Active” and the inhibition [16] was “inactive”.
Work on `COc1ccccc1NS(=O)(=O)c1ccc(NC(=O)CCSc2ccc(C)cc2)cc1` yielded an IC50 [12] of 1 nM.
In the case of `COc1ccccc1NS(=O)(=O)c1ccc(N)cc1`, the IC50 [12] is reported as 1 nM.
For `C=CC(=O)Nc1ccc(S(=O)(=O)Nc2cc(OC)ccc2OC)cc1`, the IC50 [12] was 0.1 nM.
`COc1cccc(NS(=O)(=O)c2ccc(N)cc2)c1` was tested, and the IC50 [12] was 1 nM.
For `COc1ccc(NS(=O)(=O)c2ccc(NC(=O)CCSc3ccc(C)cc3)cc2)c(OC)c1`, the IC50 [12] was 30 nM.
In the case of `COc1ccccc1NS(=O)(=O)c1ccc(NC(=O)CSc2ccc(C)cc2)cc1`, the IC50 [12] is reported as 1 nM.
Work on `COc1ccc(OC)c(NS(=O)(=O)c2ccc(NC(=O)CCOc3ccc(C)cc3)cc2)c1` yielded an IC50 [12] of 1 nM.
For `COc1ccccc1NS(=O)(=O)c1ccc([N+](=O)[O-])cc1`, the IC50 [12] was 1 nM.
With `CCN(CC)CCCC(C)Nc1nc(C)cc(Nc2ccc3nc(C)cc(N)c3c2)n1` (centres undefined) the inhibition [1] was “Active”, the inhibition [10] was “Active” and the inhibition [13] was “Dose-dependent effect”. For the same compound, the inhibition [14] was “Active”.
